Reference: patent US11786486B2, “Pharmaceutical compositions comprising 2,3,5-trimethyl-6-nonylcyclohexa-2,5-diene-1,4-dione” (PTC THERAPEUTICS, INC., priority 2021, dated 2023)
Values after ≈ are worked out from the molar mass of the structure shown.

Tests used:
[1] = Physical stability on storage (microscope / polarized microscope); format: physicochemical; details: 25° C./60% RH and 5° C.
Method: Certain combinations of Gelucire 44/14 with Solutol HS15, TPGS and Tween 80 were screened as shown in Table 2 at 200 mg/g concentration of Compound 1. Physical stability was observed microscopically at week one at 25° C./60% RH and at 5° C. Bioperformance was assessed visual observation after 10× dilution in FaSSIF. Based on the crash resistance test performed with ten times dilution with FaSSIF, the most promising formulation combination for Gelucire 44/14 appeared to be 80% w/w Gelucire 44/14, 10% w/w TPGS and 10% w/w Tween 80.
In the above table and in this paragraph, the % w/w are based on the total weight of the vehicle without compound. The 80% w/w Gelucire 44/14, 10% w/w TPGS and 10% w/w Tween 80 formulation vehicles were further tested at lower Compound 1 concentrations of 150 mg/g (i.e. 150 mg of Compound 1 in 1 g of Compound 1+vehicle) and 100 mg/g (i.e. 100 mg of Compound 1 in 1 g of Compound 1+vehicle) to minimize the crystallization risk upon storage. Physical stability was observed microscopically at week one at 25° C./60% RH and at 5° C. Bioperformance was assessed visual observation after 10× dilution in FaSSIF.
Physical stability evaluation of both Gelucire 44/14-based and Labrafac-WL-1349-based formulation vehicles was done under polarized microscope. […] Therefore, Labrafac-WL-1349-based formulation was physically stable upon storage.

[2] = Solubility of Compound 1 in oils, surfactants and co-surfactants; format: physicochemical
Method: Based on the initial screening as shown in Table 1 and based on limits of excipients allowed by FDA, the solubility of Compound 1 in the oils in Table 1A were measured. Based on the solubility data, Labrafac WL 1349 was further pursued.
A total of 36 different excipients including pharmaceutically acceptable oils, surfactants and co-surfactants were evaluated for Compound 1. Higher solubility of Compound 1 in oils is desirable to increase drug loading.

Physical stability ([1]; 150 mg/g in vehicle 80% Gelucire 44/14, 10% TPGS, 10% Tween 80, week one): Crystallization observed | Physical stability ([1]; 200 mg/g in vehicle 70% Gelucire 44/14, 10% TPGS, 20% Tween 80, week one): Crystallization | Physical stability ([1]; 200 mg/g in vehicle 80% Gelucire 44/14, 10% TPGS, 10% Tween 80, week one): Crystallization | Physical stability ([1]; 200 mg/g in vehicle 80% Gelucire 44/14, 20% Tween 80, week one): Crystallization | Physical stability ([1]; 200 mg/g in vehicle 85% Gelucire 44/14, 5% Solutol HS15, 5% TPGS, 5% Tween 80, week one): Crystallization | Physical stability ([1]; 200 mg/g in vehicle 90% Gelucire 44/14, 10% TPGS, week one): Crystallization | Physical stability ([1]; 200 mg/g in vehicle 90% Gelucire 44/14, 10% Tween 80, week one): Crystallization | Solubility of Compound 1 ([2]; in Soybean oil, RT): <150 mg/g | solubility ([2]; oil or lipid, in Capryol 90, RT): 125 mg/mL (≈ 451 mM) | solubility ([2]; oil or lipid, in Capryol PGMC, RT): 184 mg/mL (≈ 665 mM) | solubility ([2]; oil or lipid, in Corn Oil, RT): 115 mg/mL (≈ 417 mM) | solubility ([2]; oil or lipid, in Cottonseed Oil, RT): 112 mg/mL (≈ 404 mM) | solubility ([2]; oil or lipid, in Labrafac Lipo WL1349, RT): 141 mg/mL (≈ 510 mM) | solubility ([2]; oil or lipid, in Labrafac PG, RT): 222 mg/mL (≈ 803 mM) | solubility ([2]; oil or lipid, in Labrafil M1944CS, RT): 101 mg/mL (≈ 364 mM) | solubility ([2]; oil or lipid, in Labrafil M2125CS, RT): 119 mg/mL (≈ 429 mM) | solubility ([2]; oil or lipid, in Lauroglycol 90, RT): 133 mg/mL (≈ 483 mM) | solubility ([2]; oil or lipid, in Lauroglycol FCC, RT): 160 mg/mL (≈ 578 mM) | solubility ([2]; oil or lipid, in Maisine CC, RT): 90.3 mg/mL (≈ 327 mM) | solubility ([2]; oil or lipid, in Olive oil, RT): 135 mg/mL (≈ 488 mM) | solubility ([2]; oil or lipid, in Plurol oleique CC 497): 50 to 100 mg/mL (≈ 181 to 362 mM) | solubility ([2]; oil or lipid, in Sesame oil, RT): 139 mg/mL (≈ 503 mM) | solubility ([2]; oil or lipid, in Soybean Oil, RT): 111 mg/mL (≈ 400 mM) | solubility ([2]; organic solvent or mixture, in Gelucire 44/14, 45° C.): 269 mg/mL (≈ 973 mM) | solubility ([2]; organic solvent or mixture, in Labrasol, RT): 35.7 mg/mL (≈ 129 mM) | solubility ([2]; organic solvent or mixture, in PEG400, 37° C.): 11 mg/mL (≈ 39.8 mM) | solubility ([2]; organic solvent or mixture, in Solutol HS15, 37° C.): 94 mg/mL (≈ 340 mM) | solubility ([2]; organic solvent or mixture, in TPGS, 45° C.): 195 mg/mL (≈ 705 mM) | solubility ([2]; organic solvent or mixture, in Triethyl citrate, RT): 30.1 mg/mL (≈ 109 mM) | solubility ([2]; organic solvent or mixture, in Tween 60): 50 to 100 mg/mL (≈ 181 to 362 mM) | solubility ([2]; organic solvent or mixture, in Tween 80): 25 to 50 mg/mL (≈ 90.4 to 181 mM)
SMILES: CCCCCCCCCC1=C(C)C(=O)C(C)=C(C)C1=O [Compound 1, 2,3,5-trimethyl-6-nonylcyclohexa-2,5-diene-1,4-dione]
